Assay results reported in PMC6450895, “A fungal substrate mimicking molecule suppresses plant immunity via an inter-kingdom conserved motif” (Nature Communications, 2019).
“Also recorded” adds a separate entry of the source.

How the values were obtained:
[1] = test system: proteases of maize apoplastic fluid processing UmPit2; assay: Effect of protease inhibitors on processing of UmPit2 in maize apoplastic fluid; type: biochemical; settings: apoplastic fluid preincubated with inhibitor 10 min; 0, 15, 30 min
Description: Fig. 5 PLCPs cleave UmPit2 in the apoplast. a Input used to perform inhibitory test of Pit2 stability. Heterologous expressed UmPit2 and maize AF at different time points during the experiment. b Addition of E-64 stabilizes Pit2 degradation. Four inhibitors for main classes of proteases: E-64 for cysteine proteases, DCI for serine hydrolases, EDTA for metalloproteases and Pepstatin A for aspartic proteases were preincubated with maize AF for 10 min. Pit2 degradation was analyzed over time (0, 15 and 30 min) using SyproRuby staining. c Inhibition of cysteine proteases stabilizes Pit2 in the apoplast. Maize AF was coincubated with a mix of inhibitors containing DCI [10 µM], EDTA [1 mM] and Pepstatin A [10 µM] (Inh. Mix) with or without E-64 [10 µM]. As a control the noninhibitor sample containing DMSO is shown. d Fractionation of SA-treated apoplastic fluid by anion-exchange chromatography. […] F-24 was preincubated with 10 µM E-64 or DMSO followed by addition of purified UmPit2. Samples were incubated for 0, 15 and 30 min and analyzed by gel electrophoresis using SyproRuby. f UmPit2 is processed at similar rates as an endogenous maize substrate. UmPit2 as well as the endogenous maize PLCP substrate Prozip11 were heterologous expressed in E-coli. 3.2 µM proteins were coincubated with F-24 pretreated with inhibitor mix (Inh. mix) in the presence or absence of E-64. Processing of Prozip11 and UmPit2 has been monitored over time. Samples were analyzed by gel electrophoresis and stained with SyproRuby for visualization. As a control purified proteins as well as F-24 were loaded on gel (right gel). DMSO dimethyl sulfoxide, DCI 3,4-dichloroisocoumarin
(§1) Approximately 41 µg/ml heterologous expressed UmPit2 and UhPit2 proteins (concentration calculated with the previously described semi-quantitative approach based on SyproRuby) were incubated with or without apoplastic fluids (ca. 200 µg/ml) over time. Reaction was stopped by adding 2× SDS-gel loading buffer) and samples were analyzed by gel electrophoresis and SyproRuby staining (Invitrogen, Paisley, UK). Inhibition of apoplastic fluids containing specific inhibitors was performed as described in the main text. E-64 and pepstatin A were diluted in DMSO at a desired concentration. DCI was diluted in dimethyl formamide. All compounds have been purchased by Sigma-Aldrich (Taufkirchen, Germany). Stability experiments using F-24 were performed using ca. 1.4 µg/µl of the fraction and 3.2 µM of heterologous expressed UmPit2 or […].

[2] = test system: F-24 (PLCP-enriched fraction of maize apoplastic fluid); assay: Stability/processing in PLCP-enriched fraction F-24 (SDS gel, SyproRuby); type: in vitro ADME; settings: F-24 preincubated with 50 µM / 10 µM E-64
Description: as §1

[3] = test system: PLCPs of fractionated maize apoplastic fluid; assay: PLCP activity of anion-exchange fractions, substrate Z-Phe-Arg-AMC; type: biochemical
Description: Fig. 5 PLCPs cleave UmPit2 in the apoplast. a Input used to perform inhibitory test of Pit2 stability. Heterologous expressed UmPit2 and maize AF at different time points during the experiment. b Addition of E-64 stabilizes Pit2 degradation. Four inhibitors for main classes of proteases: E-64 for cysteine proteases, DCI for serine hydrolases, EDTA for metalloproteases and Pepstatin A for aspartic proteases were preincubated with maize AF for 10 min. Pit2 degradation was analyzed over time (0, 15 and 30 min) using SyproRuby staining. c Inhibition of cysteine proteases stabilizes Pit2 in the apoplast. […] Samples were incubated for 0, 15 and 30 min and analyzed by gel electrophoresis using SyproRuby. f UmPit2 is processed at similar rates as an endogenous maize substrate. […] Processing of Prozip11 and UmPit2 has been monitored over time. Samples were analyzed by gel electrophoresis and stained with SyproRuby for visualization. […]
Activity of PLCPs present in isolated apoplastic fluids was monitored using 10 µM final concentration of the fluorogenic substrate Z-Phe-Arg-7-amido-4-methylcoumarin (Sigma-Aldrich, Taufkirchen, Germany). AMC released (RFU) over time was monitored at 460 nm using a Tecan Infinite M200 PRO plate reader (Tecan Group Ltd., Männedorf, Switzerland). […] The inhibitor control was used to normalize all measurements and obtain a read-out for specific PLCP activity. […]

[4] = test system: apoplastic PLCPs of barley; assay: Apoplastic PLCP activity in SA-treated barley; type: in vivo; settings: Supplementary Fig. 9

Row | Compound | effect on processing of UmPit2 in maize apoplastic fluid (in words) [1] | effect of E-64 on processing by F-24 (in words) [2] | PLCP activity of fractions with inhibitor (in words) [3] | induction of apoplastic PLCPs by SA (in words) [4]
1 | O=c1oc(Cl)c(Cl)c2ccccc12 [DCI, 3,4-dichloroisocoumarin] | Processing of UmPit2 was observed gradually | – | – | –
2 | CC(C)C[C@H](NC(=O)[C@H]1O[C@@H]1C(=O)O)C(=O)NCCCCN=C(N)N [E-64] | E-64 stabilizes UmPit2 | stabilized in the fraction preincubated with E-64; also recorded: stabilization of Prozip1 and UmPit2 | did not show any activity | –
3 | O=C(O)CN(CCN(CC(=O)O)CC(=O)O)CC(=O)O [EDTA] | Processing of UmPit2 was observed gradually | – | – | –
4 | O=C(O)c1ccccc1O [SA, salicylic acid] | – | – | – | not found in barley
5 | pepstatin-A | Processing of UmPit2 was observed gradually | – | – | –
